Species: Homo sapiens
Assay: Selectivity ratio of IC50 for human recombinant ERalpha to IC50 for human recombinant ERbeta

Row | Ratio IC50 | Structure (SMILES)
1 | 0.6 | CC(C)=CCc1cc(-c2coc3cc(O)cc(O)c3c2=O)ccc1O
2 | 16 | COc1cc(O)c2c(=O)c(-c3cc4c(cc3O)OC(C)(C)C(O)C4)coc2c1 (stereo not drawn)
3 | 2.2 | COc1ccc2c(c1CC=C(C)C)O[C@H]1c3ccc(O)cc3OC[C@@]21O
4 | 0.7 | COc1cc(O)c2c(=O)c(-c3cc(CC=C(C)C)c(O)cc3O)coc2c1
5 | 0.7 | CC1(C)C=Cc2c(cc3occ(-c4ccc(O)cc4)c(=O)c3c2O)O1
6 | 0.6 | CC(C)=CCc1c(O)cc2occ(-c3ccc(O)cc3)c(=O)c2c1O
7 | 36 | CCCc1c(-c2ccc(O)cc2)nn(-c2ccc(O)cc2)c1-c1ccc(O)cc1
8 | 2.3 | COc1cc(O)c2c(=O)c(-c3ccc(O)c(CC(O)=C(C)C)c3)coc2c1

— ChEMBL document CHEMBL1154244, “Isoflavonoids from Erythrina poeppigiana: evaluation of their binding affinity for the estrogen receptor” (J Nat Prod, 2009)
